Consider 23 compounds from ChEMBL document CHEMBL3593209, “5-Aryl-1H-pyrazole-3-carboxylic acids as selective inhibitors of human carbonic anhydrases IX and XII” (Bioorg Med Chem, 2015).

The target of one data set is Carbonic anhydrase 9 (Homo sapiens, UniProt Q16790).
Another data set deals with Carbonic anhydrase 2 (Homo sapiens, UniProt P00918). The experiment in a line: Inhibition of human recombinant carbonic anhydrase 2 expressed in Escherichia coli preincubated for 15 mins by stopped flow CO2 hydration method.
The target of another data set is Carbonic anhydrase 12 (Homo sapiens, UniProt O43570). Briefly: Inhibition of human recombinant carbonic anhydrase 12 expressed in Escherichia coli preincubated for 15 mins by stopped flow CO2 hydration method.
The target in another data set is Carbonic anhydrase 1 (Homo sapiens, UniProt P00915). The experiment in a line: Inhibition of human recombinant carbonic anhydrase 1 expressed in Escherichia coli preincubated for 15 mins by stopped flow CO2 hydration method.
Data set [1] in a line: Dissociation constant, acidic pKa of the compound by spectrophotometric analysis.

Carbonic anhydrase 12, sequence (O43570 whole entry): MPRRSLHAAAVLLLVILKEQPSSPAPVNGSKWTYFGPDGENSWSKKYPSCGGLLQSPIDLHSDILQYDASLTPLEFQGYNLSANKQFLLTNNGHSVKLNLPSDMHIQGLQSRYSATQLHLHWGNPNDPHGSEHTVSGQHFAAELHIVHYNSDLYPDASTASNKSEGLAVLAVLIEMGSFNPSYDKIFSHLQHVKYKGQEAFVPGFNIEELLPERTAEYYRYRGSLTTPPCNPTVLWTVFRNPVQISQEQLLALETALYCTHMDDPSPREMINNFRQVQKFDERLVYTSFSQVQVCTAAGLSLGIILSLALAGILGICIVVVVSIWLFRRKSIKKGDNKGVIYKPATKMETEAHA
Carbonic anhydrase 1, sequence (P00915 whole entry): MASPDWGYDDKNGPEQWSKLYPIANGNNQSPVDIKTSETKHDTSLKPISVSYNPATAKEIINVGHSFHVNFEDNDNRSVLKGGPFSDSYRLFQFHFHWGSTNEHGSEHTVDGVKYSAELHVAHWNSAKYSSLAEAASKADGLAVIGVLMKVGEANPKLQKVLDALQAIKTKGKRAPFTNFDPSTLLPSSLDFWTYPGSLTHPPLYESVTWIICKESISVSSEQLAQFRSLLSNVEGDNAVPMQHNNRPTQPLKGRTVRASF
Description for Carbonic anhydrase 9: Inhibition of human recombinant carbonic anhydrase 9 expressed in Escherichia coli preincubated for 15 mins by stopped flow CO2 hydration method

By Ki is commonly meant the equilibrium dissociation constant of an inhibitor or competing ligand from its target. As for `O=C(O)c1cc(-c2ccc(Cl)cc2)n[nH]1`, the Ki on Carbonic anhydrase 9 was above 50 µM; at Carbonic anhydrase 2, above 50 µM; at Carbonic anhydrase 12, 50 µM; on Carbonic anhydrase 1 it was above 50 µM.
Consider `CCc1ccc(-c2cc(C(=O)O)[nH]n2)cc1`, for which the Ki on Carbonic anhydrase 9 was 42 µM; at Carbonic anhydrase 2, above 50 µM; on Carbonic anhydrase 12, 4.5 µM; at Carbonic anhydrase 1, above 50 µM.
For `O=C(O)c1cc(-c2ccc(O)cc2)n[nH]1`, the inhibition constant (Ki) on Carbonic anhydrase 9 is above 50 µM; on Carbonic anhydrase 2, above 50 µM; at Carbonic anhydrase 12, 41 µM; at Carbonic anhydrase 1 it was above 50 µM.
One may read the pKa as the pH at which an ionisable group is half protonated. Low values mean a stronger acid or weaker base, high ones a weaker acid or stronger base. Turning to `COc1ccc(-c2cc(C(=O)O)n[nH]2)cc1`, the pKa in data set [1] is 3.31. Also, the Ki is 49.5 µM at Carbonic anhydrase 9, above 50 µM at Carbonic anhydrase 2, above 50 µM on Carbonic anhydrase 12 and above 50 µM on Carbonic anhydrase 1.
For the compound `Cc1ccc(-c2cc(C(=O)O)[nH]n2)c(C)c1`, the Ki is 45 µM at Carbonic anhydrase 9, above 50 µM on Carbonic anhydrase 2, above 50 µM at Carbonic anhydrase 12 and above 50 µM on Carbonic anhydrase 1.
Consider `Cc1ccc(-c2cc(C(=O)O)[nH]n2)cc1C`, for which the Ki on Carbonic anhydrase 9 is 48 µM; on Carbonic anhydrase 2, above 50 µM; on Carbonic anhydrase 12 it was above 50 µM; at Carbonic anhydrase 1, above 50 µM.
Turning to `O=C(O)c1cc(-c2ccc(F)cc2)n[nH]1`, the Ki is above 50 µM on Carbonic anhydrase 9, above 50 µM on Carbonic anhydrase 2, 38.5 µM at Carbonic anhydrase 12 and above 50 µM at Carbonic anhydrase 1.
Regarding `CC(C)c1ccc(-c2cc(C(=O)O)[nH]n2)cc1`, the Ki at Carbonic anhydrase 9, on Carbonic anhydrase 2, at Carbonic anhydrase 12 and on Carbonic anhydrase 1 was above 50 µM throughout.
Consider `Cc1ccc(-c2cc(C(=O)O)[nH]n2)cc1`, for which the Ki at Carbonic anhydrase 9, at Carbonic anhydrase 2, at Carbonic anhydrase 12 and on Carbonic anhydrase 1 was above 50 µM throughout.
Regarding `O=C(O)c1cc(-c2ccc3ccccc3c2)[nH]n1`, the Ki at Carbonic anhydrase 9, at Carbonic anhydrase 2 and at Carbonic anhydrase 1 was above 50 µM in each case.
With `CCCCc1ccc(-c2cc(C(=O)O)n[nH]2)cc1`, the inhibition constant (Ki) on Carbonic anhydrase 9 was 39 µM; on Carbonic anhydrase 2 it was above 50 µM; at Carbonic anhydrase 1, above 50 µM.
For the compound `CC(C)(C)c1ccc(-c2cc(C(=O)O)n[nH]2)cc1`, the Ki on Carbonic anhydrase 9 is 5 µM; on Carbonic anhydrase 2, above 50 µM; on Carbonic anhydrase 1, above 50 µM.
With `Cc1cc(C)c(-c2cc(C(=O)O)n[nH]2)cc1C`, the Ki at Carbonic anhydrase 9 is 23.5 µM; at Carbonic anhydrase 2 it was above 50 µM; on Carbonic anhydrase 12, above 50 µM; at Carbonic anhydrase 1, above 50 µM.
Consider `Cc1cc(C)c(C)c(-c2cc(C(=O)O)n[nH]2)c1C`, for which the Ki on Carbonic anhydrase 9 was 5 µM; on Carbonic anhydrase 2 it was above 50 µM; at Carbonic anhydrase 12, above 50 µM; on Carbonic anhydrase 1 it was above 50 µM.
As for `CCc1cc(CC)c(-c2cc(C(=O)O)n[nH]2)c(CC)c1`, the Ki on Carbonic anhydrase 9, on Carbonic anhydrase 2, on Carbonic anhydrase 12 and on Carbonic anhydrase 1 was above 50 µM throughout.
Turning to `CC(C)c1ccc(-c2cc(C(=O)O)n[nH]2)c(C(C)C)c1`, the Ki was 16 µM on Carbonic anhydrase 9, above 50 µM at Carbonic anhydrase 2, above 50 µM at Carbonic anhydrase 12 and above 50 µM at Carbonic anhydrase 1.
Turning to `CC(C)c1cc(C(C)C)c(-c2cc(C(=O)O)n[nH]2)c(C(C)C)c1`, the values for the Ki at Carbonic anhydrase 9, on Carbonic anhydrase 2 and on Carbonic anhydrase 1 were 39 µM, above 50 µM and above 50 µM, respectively.
Take `O=C(O)c1cc(-c2ccc3c(c2)CCCC3)[nH]n1`: the Ki at Carbonic anhydrase 9, on Carbonic anhydrase 2 and at Carbonic anhydrase 1 was above 50 µM each time.
On to `O=C(O)c1cc(-c2ccc(-c3ccccc3)cc2)[nH]n1`, for which the inhibition constant Ki at Carbonic anhydrase 9, on Carbonic anhydrase 2 and at Carbonic anhydrase 1 was above 50 µM throughout.
`O=C(O)c1cc(-c2ccc(N3CCCC3)cc2)[nH]n1`: the Ki on Carbonic anhydrase 9, at Carbonic anhydrase 2 and on Carbonic anhydrase 1 was above 50 µM in each case.
For `O=C(O)c1cc(-c2cccc(Br)c2)[nH]n1`, the inhibition constant Ki at Carbonic anhydrase 9 was 23.5 µM; on Carbonic anhydrase 2, above 50 µM; at Carbonic anhydrase 12, above 50 µM; on Carbonic anhydrase 1, above 50 µM.
With `COc1ccccc1-c1cc(C(=O)O)n[nH]1`, the Ki on Carbonic anhydrase 9, at Carbonic anhydrase 2 and at Carbonic anhydrase 1 was above 50 µM in each case.
With `COc1cc(C)c(-c2cc(C(=O)O)n[nH]2)cc1C`, the Ki is 22.5 µM at Carbonic anhydrase 9, above 50 µM on Carbonic anhydrase 2, above 50 µM at Carbonic anhydrase 12 and above 50 µM on Carbonic anhydrase 1.
